Assays:
HT22 neuronal cells [1] = details: for effect on cell death of HT22 neuronal cells induced by glutamate: glutamate at 10 mM, FIG. 1
Procedure: The HT22 neuronal cells (mouse hippocampus neuronal line) were treated for two hours with 50 μM of pigment, followed or not by the addition of 10 mM glutamate for 24 hours at 37° C. Cell viability (in %) was measured by an MTS test (by means of a CellTiter 96®Aqueous non-Radioactive Cell Proliferation Assay kit from Promega).
The HT22 cells were treated for 2 hours either with diadinoxanthin (FIG. 2) or violaxanthin (FIG. 3) or diatoxanthin (comparative test shown in FIG. 4) at different concentrations. For each of the concentrations, cell death was then induced by glutamate (10 mM) for 24 hours at 37° C. Cell viability (in %) was measured by an MTS test. The values shown are the mean±standard deviation (n=3).
The EC50 (half maximal effective concentration) is the concentration at which a molecule induces a response halfway between the baseline and the maximum effect after a certain exposure time thereof. This determines its efficacy.

HT22 neuronal cells [2] = assay: Toxicity of pigment alone on HT22 neuronal cells (MTS cell viability); type: cell-based, mouse; details: 50 μM pigment, no glutamate; FIG. 1 white rectangles

Structure (SMILES) | effect on cell death of HT22 neuronal cells induced by glutamate (HT22 neuronal cells [1]) | EC50 (HT22 neuronal cells [1]; read-out: EC50 (half maximal effective concentration), dose-response, 2 hours pre-treatment, then glutamate 10 mM for 24 hours at 37° C., FIG. 2, FIG. 3) [µM] | toxicity of pigment alone (cell viability) (HT22 neuronal cells [2])
CC1=C(C#C/C(C)=C/C=C/C(C)=C/C=C/C=C(C)/C=C/C=C(C)/C=C/[C@@]23O[C@]2(C)C[C@@H](O)CC3(C)C)C(C)(C)C[C@H](O)C1 [diadinoxanthin] | protective effect | 22 | non-toxic
CC(/C=C/C=C(C)/C=C/[C@@]12O[C@]1(C)C[C@@H](O)CC2(C)C)=C\C=C\C=C(C)\C=C\C=C(C)\C=C\[C@@]12O[C@]1(C)C[C@@H](O)CC2(C)C [violaxanthin] | protective effect |  | non-toxic

From patent US12491175B2, “Composition containing carotenoids and use thereof for protecting neurons against neurodegeneration” (priority 2019, dated 2025)
